Literature values in PMC6311893, “Computational prediction of plasma protein binding of cyclic peptides from small molecule experimental data using sparse modeling techniques” (BMC Bioinformatics, 2018).

Test system: plasma protein
Settings: fraction bound to plasma protein; small molecule dataset, sheet 1-SM (Set Dte = test, Dtr = training); ref Ingle et al.; cited from earlier work

| Molecule | PPB (fb) |
| --- | --- |
| CCCc1cc(=O)[nH]c(=S)[nH]1 [Propylthiouracil] | 0.81 |
| CCCN(CCC)S(=O)(=O)c1ccc(C(=O)O)cc1 [Probenecid] | 0.88 |
| NCC(CC(=O)O)c1ccc(Cl)cc1 (stereo not shown) [baclofen] | 0.3 |
| CC(C)(C)N1CCC(c2ccccc2)(c2ccccc2)CC1 [budipine] | 0.96 |
| NC1CCN(c2c(F)cc3c(=O)c(C(=O)O)cn(C4CC4)c3c2Cl)C1 (stereo not shown) [Clinafloxacin] | 0.04 |
| CCC(C)(C)NCC(O)COc1ccccc1C(=O)CCc1ccccc1 (stereo not shown) [Diprafenone] | 0.98 |
| O=C(O)c1cn(-c2cccc(F)c2)c2cc(N3CCNCC3)c(F)cc2c1=O [2b(m-F)] | 0.51 |
| COCC1=C(C(=O)OC(C)OC(=O)OC(C)C)N2C(=O)[C@@H](NC(=O)/C(=N\OC)c3csc(N)n3)[C@H]2SC1 (stereo partly shown) [cefpodoxime proxetil] | 0.29 |
| O=P(O)(O)OC(Cn1cncn1)(Cn1cncn1)c1ccc(F)cc1F [Fosfluconazole] | 0.96 |
| CC(N/C(=N\C#N)Nc1ccncc1)C(C)(C)C (stereo not shown) [pinacidil] | 0.4 |
| CN1C[C@H](C(=O)N[C@]2(C)O[C@@]3(O)[C@@H]4CCCN4C(=O)[C@H](Cc4ccccc4)N3C2=O)C[C@@H]2c3cccc4[nH]cc(c34)C[C@H]21 [dihydroergotamine] | 0.93 |
| O=C(O)CCCC[C@@H]1SC[C@@H]2NC(=O)N[C@@H]21 [biotin] | 0.2 |
| CN1C(C(=O)Nc2ccccn2)=C(O)c2sccc2S1(=O)=O [Tenoxicam] | 0.99 |
| C[C@@H]1CN([C@H]2CC[C@](C#N)(c3ccc(F)cc3)CC2)CC[C@]1(C(=O)O)c1ccccc1 [levocabastine] | 0.55 |
| CC(C)(Oc1ccc(C2CC2(Cl)Cl)cc1)C(=O)O (stereo not shown) [ciprofibrate] | 0.95 |

Same assay, conditions: fraction bound to plasma protein; small molecule dataset, sheet 1-SM, Set Dtr; ref Ingle et al.; cited from earlier work

| Molecule | PPB (fb) |
| --- | --- |
| C[C@@H](O)[C@H]1C(=O)N2C(C(=O)O)=C(S[C@@H]3CN[C@H](C(=O)N(C)C)C3)[C@H](C)[C@H]12 [Meropenem] | 0.08 |
| CCCNC(C)C(=O)Nc1ccccc1C (stereo not shown) [Prilocaine] | 0.39 |
| Cc1cccc(C)c1NC(=O)c1cc(S(N)(=O)=O)c(Cl)cc1O [xipamide] | 0.99 |
| CNCC[C@@H](Oc1ccccc1C)c1ccccc1 [Atomoxetine] | 0.97 |
| CNC(=C[N+](=O)[O-])NCCSCc1csc(CN(C)C)n1 [Nizatidine] | 0.32 |
| OCCN1CCN(CCCN2c3ccccc3Sc3ccc(Cl)cc32)CC1 [Perphenazine] | 0.92 |
| COc1ccccc1Oc1c(NS(=O)(=O)c2ccc(C(C)(C)C)cc2)nc(-c2ncccn2)nc1OCCO [Bosentan] | 0.97 |
| O=C1c2cccc3c2[C@H](CCC3)CN1[C@@H]1CN2CCC1CC2 [Palonosetron] | 0.62 |
| COc1ccc([C@@H]2Sc3ccccc3N(CCN(C)C)C(=O)[C@@H]2OC(C)=O)cc1 [Diltiazem] | 0.81 |
| Nc1ccn([C@@H]2O[C@H](CO)[C@@H](O)C2(F)F)c(=O)n1 [Gemcitabine] | 0.01 |
| CN(CCOc1ccc(NS(C)(=O)=O)cc1)CCc1ccc(NS(C)(=O)=O)cc1 [Dofetilide] | 0.64 |

Same assay, conditions: fraction bound to plasma protein; small molecule dataset, sheet 1-SM; ref Ingle et al.; cited from earlier work

| Molecule | PPB (fb) |
| --- | --- |
| CC(=O)/N=c1/sc(S(N)(=O)=O)nn1C [methazolamide] | 0.55 |
| OC(c1cc(C(F)(F)F)nc2c(C(F)(F)F)cccc12)C1CCCCN1 (stereo not shown) [mefloquine] | 0.97 |
| CC(C(=O)NCCCN1CCCC1)c1ccc(OS(=O)(=O)C(F)(F)F)cc1 (stereo not shown) [JMC_05] | 0.62 |
| O=C(c1ccc(OCCN2CCCCC2)cc1)c1c(-c2ccc(O)cc2)sc2cc(O)ccc12 [raloxifene] | 0.97 |
| C=C1C[C@@H]2[C@H](CC[C@]3(C)C(=O)CC[C@@H]23)[C@@]2(C)C=CC(=O)C=C12 [exemestane] | 0.9 |
| CCn1cc(C(=O)O)c(=O)c2cc(F)c(N3CCNCC3)cc21 [norfloxacin] | 0.15 |
| C[C@@H]1CN(c2c(F)c(N)c3c(=O)c(C(=O)O)cn(C4CC4)c3c2F)C[C@H](C)N1 [Sparfloxacin] | 0.45 |
| CN[C@@H]1[C@@H](O)[C@@H](O[C@@H]2[C@@H](O)[C@H](O[C@H]3OC(CN)=CC[C@H]3N)[C@@H](N)C[C@H]2N)OC[C@]1(C)O [Sisomicin] | 0.85 |
| CN1CC(=O)N2[C@H](c3ccc4c(c3)OCO4)c3[nH]c4ccccc4c3C[C@@H]2C1=O [tadalafil] | 0.94 |
| CC(=O)CCCCn1c(=O)c2c(ncn2C)n(C)c1=O [pentoxifylline] | 0 |
| CCc1nnc(NS(=O)(=O)c2ccc(N)cc2)s1 [sulfaethidole] | 0.97 |
| CC1=C(/C=C/C(C)=C/C=C/C(C)=C\C(=O)O)C(C)(C)CCC1 [isotretinoin] | 0.95 |
| C#CCCCC(=O)c1cc(C(C)(C)C)c(O)c(C(C)(C)C)c1 [tebufelone] | 0.99 |
| O=C(CCCN1CC=C(n2c(=O)[nH]c3ccccc32)CC1)c1ccc(F)cc1 [droperidol] | 0.95 |
| CS(=O)(=O)c1ccc(C2=C(c3ccccc3)C(=O)OC2)cc1 [rofecoxib] | 0.87 |
| CC(C)C(=O)Nc1ccc([N+](=O)[O-])c(C(F)(F)F)c1 [flutamide] | 0.9 |
| COc1ccc(C(N)C(=O)NC2C(=O)N3C2SC(C)(C)C3C(=O)O)cc1 (stereo not shown) [penicillin34] | 0.38 |
| CN[C@@H]1[C@H](O)[C@H](NC)[C@H]2O[C@@]3(O)C(=O)C[C@@H](C)O[C@H]3O[C@@H]2[C@H]1O [spectinomycin] | 0.05 |
| COC(C(=O)NC1C(=O)N2C1SC(C)(C)C2C(=O)O)c1ccccc1 (stereo not shown) [penicillin38] | 0.62 |
| CC(Oc1cccc(F)c1)C(=O)NC1C(=O)N2C1SC(C)(C)C2C(=O)O (stereo not shown) [penicillin61] | 0.84 |
| CCC(OC)C(=O)NC1C(=O)N2C1SC(C)(C)C2C(=O)O (stereo not shown) [penicillin9] | 0.2 |

Same assay, conditions: human, plasma; cited from earlier work

| Molecule | PPB (fb) |
| --- | --- |
| CCNC(=O)[C@@H]1CCCN1C(=O)[C@H](CCCNC(=N)N)NC(=O)[C@H](CC(C)C)NC(=O)[C@@H](CC(C)C)NC(=O)[C@H](Cc1ccc(O)cc1)NC(=O)[C@H](CO)NC(=O)[C@H](Cc1c[nH]c2ccccc12)NC(=O)[C@H](Cc1c[nH]cn1)NC(=O)[C@@H]1CCC(=O)N1 [Leuprolide] | 0.46 |

Same assay, conditions: plasma; cited from earlier work

| Molecule | PPB (fb) |
| --- | --- |
| COc1ccc(C(CN(C)C)C2(O)CCCCC2)cc1 (stereo not shown) [Venlafaxine] | 0.27 |
| CCN(CC)C(=O)[C@@H]1C=C2c3cccc4[nH]cc(c34)C[C@H]2N(C)C1 [lysergide] | 0.9 |
| CC(=O)NCCCS(=O)(=O)O [acamprosate] | 0.03 |
| Cc1cccc(N2CC(CO)OC2=O)c1 (stereo not shown) [Toloxatone] | 0.5 |
| CN1C(=O)NC(=O)C(C)(C2=CCCCC2)C1=O (stereo not shown) [Hexobarbital] | 0.47 |
| CCCCC1(CC)C(=O)NC(=O)NC1=O [butobarbital] | 0.26 |
| C=CC1(O)CN2CCC1CC2C(O)c1ccnc2ccc(OC)cc12 (stereo not shown) [3-Hydroxy Quinidine] | 0.6 |
| CC(=O)[C@H]1CC[C@H]2[C@@H]3C=CC4=CC(=O)CC[C@@]4(C)[C@@H]3CC[C@]12C [dydrogesterone] | 0.97 |
| CN1C(=O)CC(=O)N(c2ccccc2)c2cc(Cl)ccc21 [clobazam] | 0.92 |
| Rolitetracycline | 0.5 |
| Clevidipine | 1 |
| O=C1CN=C(c2ccccc2Cl)c2cc([N+](=O)[O-])ccc2N1 [Clonazepam] | 0.85 |
| C=CCC1(C(C)C)C(=O)NC(=O)NC1=O [aprobarbital] | 0.62 |
